Test results published in PMC6231190 (ACS Medicinal Chemistry Letters, 2018).
Read-outs that look alike come from different tables or passages of the source.

Key:
[1] = target: WT p97 (Homo sapiens, UniProt P55072); conditions: for fold less potent than 17: p97 IC50 ratio vs 17; for p97 inhibition (in words): biochemical ATPase assay
[2] = Aqueous solubility; format: physicochemical; conditions: potassium phosphate buffer, pH 7.4, solubility (μM)
[3] = test system: NCI-60 cell line panel; assay: cells; conditions: Homo sapiens, read-out: pGI50, prostate cancer cell lines (converted)
[4] = test system: NCI-60 cell line panel; conditions: range over lines; for pGI50, CNS tumor cell lines: NCI-60 CNS tumor subpanel; for pGI50, NSCL cancer cell lines: NCI-60 NSCL cancer subpanel; for pGI50, leukemia cell lines: NCI-60 leukemia subpanel; for pGI50, melanoma cell lines: NCI-60 melanoma subpanel; for pGI50, ovarian cancer cell lines: NCI-60 ovarian cancer subpanel; for pGI50, renal cancer cell lines: NCI-60 renal cancer subpanel
[5] = Metabolic stability in mouse liver microsomes; format: in vitro ADME; conditions: pH 7.4, MLM (t1/2, min)
[6] = test system: HeLa cell line with the ubiquitin fusion degradation reporter UbG76V-GFP; assay: UbG76V-GFP accumulation assay
[7] = Metabolic stability in human liver microsomes; format: in vitro ADME; conditions: pH 7.4, HLM (t1/2, min)
[8] = Homo sapiens, HeLa, 6 h, read-out: Ub^G76 V-GFP EC50 (μM), 6 h

Sequence of WT p97 (P55072 whole entry): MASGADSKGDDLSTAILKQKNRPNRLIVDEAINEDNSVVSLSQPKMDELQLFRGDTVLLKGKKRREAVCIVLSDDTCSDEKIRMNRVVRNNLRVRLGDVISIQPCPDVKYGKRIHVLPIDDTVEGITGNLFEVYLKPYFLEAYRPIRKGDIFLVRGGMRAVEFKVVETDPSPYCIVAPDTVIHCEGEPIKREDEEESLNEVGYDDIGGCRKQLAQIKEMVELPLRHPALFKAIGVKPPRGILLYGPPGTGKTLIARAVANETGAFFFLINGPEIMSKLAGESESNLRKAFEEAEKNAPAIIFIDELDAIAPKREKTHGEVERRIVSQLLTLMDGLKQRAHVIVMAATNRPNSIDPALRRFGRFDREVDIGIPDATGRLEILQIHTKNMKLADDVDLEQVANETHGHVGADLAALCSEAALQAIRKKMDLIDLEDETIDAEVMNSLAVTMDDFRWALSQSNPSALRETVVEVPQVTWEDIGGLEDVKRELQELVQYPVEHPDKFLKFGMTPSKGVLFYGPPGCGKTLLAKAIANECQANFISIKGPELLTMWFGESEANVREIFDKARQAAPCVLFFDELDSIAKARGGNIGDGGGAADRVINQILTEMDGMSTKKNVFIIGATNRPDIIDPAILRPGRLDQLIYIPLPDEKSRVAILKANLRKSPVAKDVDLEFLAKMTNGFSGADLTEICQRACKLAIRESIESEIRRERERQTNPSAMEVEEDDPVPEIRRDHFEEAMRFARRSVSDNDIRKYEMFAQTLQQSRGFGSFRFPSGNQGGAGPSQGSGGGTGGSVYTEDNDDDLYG

SMILES: c1cc(-c2cc3ccccc3[nH]2)cc(N2CCC(NCCN3CCNCC3)CC2)c1 [Compound 8]
- improvement in potency compared to compound 1 ([1]; p97 IC50 ratio vs 1): ~3 fold

SMILES: CC(C)N1CCN(CCCNC2CCN(c3cccc(-c4cc5ccccc5[nH]4)c3)CC2)CC1 [Compound 13]
- fold less potent than 2-carbon homologue 11 ([1]; p97 IC50 ratio vs 11): ~2 fold

SMILES: CN(C)CCNC1CCN(c2cccc(-c3cc4cc(F)ccc4[nH]3)c2)CC1 [Compound 15]
- fold less potent than 14 ([1]; p97 IC50 ratio vs 14): > 10 fold

SMILES: CC(C)N1CCC(NC2CCN(c3cccc(-c4cc5cc(F)ccc5[nH]4)c3)CC2)CC1 [Compound 17]
- solubility [2]: > 300 µM
- GI50 [3]: 2000 nM
- pGI50, CNS tumor cell lines [4]: −5.7 to −5.8
- pGI50, NSCL cancer cell lines [4]: −5.7 to −6.0
- pGI50, colon cancer cell lines ([4]; NCI-60 colon cancer subpanel): 5.8 to −6.4
- pGI50, leukemia cell lines [4]: −5.7 to −6.7
- pGI50, melanoma cell lines [4]: −5.7 to −5.9
- pGI50, ovarian cancer cell lines [4]: −5.7 to −5.8
- pGI50, renal cancer cell lines [4]: −5.7 to −5.8
- half-life at 10 µM [5]: > 4.5 h
- EC50 [6, 8]: > 40 µM

SMILES: CC(C)N1CCC(N[C@H]2CC[C@H](c3cccc(-c4cc5cc(F)ccc5[nH]4)c3)CC2)CC1 [Compound 18]
- fold less potent than 17 [1]: 3–4 fold

SMILES: CC(C)N1CCC(N[C@H]2CC[C@@H](c3cccc(-c4cc5cc(F)ccc5[nH]4)c3)CC2)CC1 [Compound 19]
- fold less potent than 17 [1]: > 100 fold
- fold less potent compared to the trans-isomer ([1]; p97 IC50 ratio vs 18): > 20 fold

SMILES: CC(C)N1CCC2(CCN(c3cccc(-c4cc5cc(F)ccc5[nH]4)c3)CC2)CC1 [Compound 20]
- p97 inhibition (in words) [1]: micromolar range

SMILES: CC(C)N1CCN(C2CCN(c3cccc(-c4cc5cc(F)ccc5[nH]4)c3)CC2)CC1 [Compound 21]
- p97 inhibition (in words) [1]: micromolar range

SMILES: CC(C)N1CC2CN(c3cccc(-c4cc5cc(F)ccc5[nH]4)c3)CC2C1 (centres unmarked) [Compound 22]
- p97 inhibition (in words) [1]: micromolar range

SMILES: CN1CCN(C2(CNC3CCN(c4cccc(-c5cc6cc(F)ccc6[nH]5)c4)CC3)CCC2)CC1 [Compound 23]
- solubility [2]: > 300 µM
- pGI50, CNS tumor cell lines [4]: −5.7 to −5.8
- pGI50, NSCL cancer cell lines [4]: −5.7 to −5.8
- pGI50, leukemia cell lines [4]: −5.7 to −6.7
- pGI50, melanoma cell lines [4]: −5.7 to −6.5
- pGI50, ovarian cancer cell lines [4]: −5.7 to −5.8
- pGI50, renal cancer cell lines [4]: −5.7 to −5.8
- half-life at 10 µM [7]: > 4.5 h
- fold more potent than the N-iPr analog (24) ([1]; p97 IC50 ratio vs 24): 5 fold
- half-life at 10 µM [5]: > 4.5 h
- EC50 [6, 8]: > 40 µM

SMILES: Cc1cc(OCc2nnc(SC3CCCC3)n2-c2cccnc2)ccc1-c1ccc(S(C)(=O)=O)cc1 [NMS-873, reference compound]
- EC50 ([6]; read-out: Ub^G76 V-GFP EC50 (μM), 1 h): 1.4 µM
